This is an account of results in ChEMBL document CHEMBL1201862, “PubChem BioAssay data set” (2004).

Structures are written as SMILES. Active and inactive are the calls of the source.

The target in test [1] is T1, Replicative DNA helicase DnaB (Mycobacterium tuberculosis, UniProt P9WMR3).
T1 sequence (P9WMR3 whole entry): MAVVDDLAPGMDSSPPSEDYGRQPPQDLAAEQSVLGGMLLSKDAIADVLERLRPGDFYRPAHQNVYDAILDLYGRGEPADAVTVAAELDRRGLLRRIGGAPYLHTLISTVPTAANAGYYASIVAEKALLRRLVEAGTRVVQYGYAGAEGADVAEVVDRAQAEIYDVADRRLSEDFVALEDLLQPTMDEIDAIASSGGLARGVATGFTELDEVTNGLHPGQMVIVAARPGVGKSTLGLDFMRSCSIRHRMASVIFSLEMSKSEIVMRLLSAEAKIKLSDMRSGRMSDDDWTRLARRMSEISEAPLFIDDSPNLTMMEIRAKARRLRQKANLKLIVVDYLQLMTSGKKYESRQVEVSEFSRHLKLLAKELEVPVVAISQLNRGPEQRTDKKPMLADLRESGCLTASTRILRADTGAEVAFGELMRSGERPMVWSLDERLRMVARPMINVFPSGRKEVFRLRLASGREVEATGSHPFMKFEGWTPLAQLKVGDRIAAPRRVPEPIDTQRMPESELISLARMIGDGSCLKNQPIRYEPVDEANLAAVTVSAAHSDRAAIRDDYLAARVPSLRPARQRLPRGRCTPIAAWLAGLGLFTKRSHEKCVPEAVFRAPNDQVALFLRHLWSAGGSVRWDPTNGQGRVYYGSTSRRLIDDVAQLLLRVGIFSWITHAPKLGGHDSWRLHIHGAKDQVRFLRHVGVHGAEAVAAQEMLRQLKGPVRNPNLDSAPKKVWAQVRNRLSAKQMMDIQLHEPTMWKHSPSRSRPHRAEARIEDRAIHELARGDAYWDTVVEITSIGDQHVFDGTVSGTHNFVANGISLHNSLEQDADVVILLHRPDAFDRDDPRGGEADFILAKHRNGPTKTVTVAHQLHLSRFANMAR
Briefly: DnaB intein splicing inhibitors, dose response, biochemical, cell-free fluorescence (AID 449749). In kind it is functional.

The target in the next test is T2, Protein RecA (Mycobacterium tuberculosis, UniProt P9WHJ3).
T2 sequence (P9WHJ3 whole entry): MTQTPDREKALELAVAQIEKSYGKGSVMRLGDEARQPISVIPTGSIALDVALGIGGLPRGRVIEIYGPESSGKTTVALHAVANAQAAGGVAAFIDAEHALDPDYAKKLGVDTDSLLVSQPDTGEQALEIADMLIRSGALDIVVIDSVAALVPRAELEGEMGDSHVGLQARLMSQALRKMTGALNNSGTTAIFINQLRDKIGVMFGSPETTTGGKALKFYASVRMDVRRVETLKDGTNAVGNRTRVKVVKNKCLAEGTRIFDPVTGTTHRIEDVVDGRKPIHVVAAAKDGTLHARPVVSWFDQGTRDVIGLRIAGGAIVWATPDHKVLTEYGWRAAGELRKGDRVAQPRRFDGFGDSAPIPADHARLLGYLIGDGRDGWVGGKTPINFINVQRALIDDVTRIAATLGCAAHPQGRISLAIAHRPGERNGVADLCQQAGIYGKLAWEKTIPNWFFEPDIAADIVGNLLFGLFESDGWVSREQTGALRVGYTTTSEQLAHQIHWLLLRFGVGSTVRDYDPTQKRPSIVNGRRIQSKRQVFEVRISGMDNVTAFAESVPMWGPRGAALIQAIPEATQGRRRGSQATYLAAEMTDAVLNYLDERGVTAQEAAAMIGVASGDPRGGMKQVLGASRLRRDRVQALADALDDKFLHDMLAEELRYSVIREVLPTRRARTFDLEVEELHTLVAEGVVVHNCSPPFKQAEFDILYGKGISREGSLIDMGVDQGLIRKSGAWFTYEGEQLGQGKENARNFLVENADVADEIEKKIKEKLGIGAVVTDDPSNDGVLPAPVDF
Briefly: Fluorescence Cell-Free Homogeneous Dose Retest to Identify Inhibitors of RecA-Intein Splicing Activity. [Related pubchem assays (depositor defined):AID2097, AID2223, AID489010, AID492950]. In kind it is functional.

The target of test [2] is Luciferin 4-monooxygenase (Photinus pyralis, UniProt P08659). Briefly: inhibition of purified Photinus pyralis luciferase – biochemical, luminescence, dose response (AID 1891).
Test [3] in a line: Luminescence Cell-Based Dose Confirmation HTS to Identify Inhibitors of Platelet Dense Granule Release. [Related pubchem assays: 1663 (Primary HTS), 1678 (Summary of Project)]. Type of test: functional.
Test [4] in a line: viability of uninfected HEp-2 cells – cell-based, HTS, cytotoxicity control for RSV inhibitor project, dose response (AID 2410). Type of test: functional. The settings on record: human respiratory syncytial virus.
For a further test, the target named is Cytochrome P450 2D6 (Homo sapiens, UniProt P10635).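 Further: CYP2D6 member of a cytochrome P450 panel assay.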
The target in a further test is T3, Cytochrome P450 1A2 (Homo sapiens, UniProt P05177).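 Further: PubChem cytochrome P450 panel assay, CYP1A2 panel member.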
T3 sequence (P05177 whole entry): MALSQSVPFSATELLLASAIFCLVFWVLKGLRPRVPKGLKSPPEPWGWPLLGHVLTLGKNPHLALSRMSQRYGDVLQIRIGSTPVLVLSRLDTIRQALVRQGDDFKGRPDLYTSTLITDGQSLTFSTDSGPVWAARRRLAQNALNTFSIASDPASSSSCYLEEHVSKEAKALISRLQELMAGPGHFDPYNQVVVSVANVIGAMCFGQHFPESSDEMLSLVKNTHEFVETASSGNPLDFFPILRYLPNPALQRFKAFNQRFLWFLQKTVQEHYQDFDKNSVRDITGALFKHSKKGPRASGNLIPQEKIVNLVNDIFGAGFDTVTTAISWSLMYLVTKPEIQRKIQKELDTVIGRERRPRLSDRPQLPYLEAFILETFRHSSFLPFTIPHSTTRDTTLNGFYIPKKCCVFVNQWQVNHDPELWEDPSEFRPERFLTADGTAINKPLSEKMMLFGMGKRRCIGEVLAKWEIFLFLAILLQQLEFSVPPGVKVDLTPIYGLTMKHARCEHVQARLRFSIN

Another test has as its target Cytochrome P450 3A4 (Homo sapiens, UniProt P08684).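 Further: CYP3A4 tested as one member of a cytochrome P450 panel screen.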
For test [5], the target named is T4, Rac GTPase-activating protein 1 (Homo sapiens, UniProt Q9H0H5).
T4 sequence (Q9H0H5 whole entry): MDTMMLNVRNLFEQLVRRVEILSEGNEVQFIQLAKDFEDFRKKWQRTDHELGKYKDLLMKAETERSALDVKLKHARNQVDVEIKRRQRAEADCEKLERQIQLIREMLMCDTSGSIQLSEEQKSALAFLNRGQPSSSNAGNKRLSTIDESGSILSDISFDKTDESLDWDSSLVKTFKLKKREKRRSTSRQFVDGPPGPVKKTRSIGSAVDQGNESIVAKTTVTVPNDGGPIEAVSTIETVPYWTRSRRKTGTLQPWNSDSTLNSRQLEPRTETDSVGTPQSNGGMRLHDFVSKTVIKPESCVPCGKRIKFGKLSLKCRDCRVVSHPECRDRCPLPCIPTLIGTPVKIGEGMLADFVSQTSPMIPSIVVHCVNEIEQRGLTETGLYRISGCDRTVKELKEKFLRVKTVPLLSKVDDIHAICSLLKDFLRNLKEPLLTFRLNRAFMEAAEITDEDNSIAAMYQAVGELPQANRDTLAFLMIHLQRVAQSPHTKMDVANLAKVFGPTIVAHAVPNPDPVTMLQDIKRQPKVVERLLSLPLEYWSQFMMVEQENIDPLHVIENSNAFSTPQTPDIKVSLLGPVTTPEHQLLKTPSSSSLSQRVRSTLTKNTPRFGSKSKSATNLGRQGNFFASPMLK
Briefly: blockers of MgcRacGAP-driven Rac1 GTP hydrolysis – biochemical, ADP Hunter fluorescence, primary and confirmatory, confirmation (AID 624330). In kind it is functional.

Test [6] in a line: Trypanosoma cruzi growth suppression in host cells – NIH3T3 host cells, beta-gal luminescence, confirmation (AID 2044).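 Further: intracellular parasites grown in NIH/3T3 mouse fibroblasts as host cells; luminescent beta-galactosidase reporter signal from transgenic T. cruzi replicating inside host cells; inhibitors lower the luminescence signal.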 Type of test: functional, cell-based.
Test [7] can be described thus: NIH3T3 cell viability loss – ATP luminescence, mouse fibroblasts, counter-screen, dose response (AID 2010).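 Further: cells exposed to compound for about 90 hours before reading.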 Type of test: functional, cell-based. A general note: Counterscreens check selectivity or assay interference.
Test [8] concerns Streptococcus sp. 'group A'. Briefly: Streptococcus pyogenes SK(-)GAS viability under kanamycin – luminescence, BacTiterGlo, confirmation, counter-screen for streptokinase expression inhibitor project, dose response (AID 1900). In kind it is functional, organism-based.
A further test addresses T5, Streptokinase A (Streptococcus pyogenes serotype M1, UniProt P10520).
T5 sequence (P10520 whole entry): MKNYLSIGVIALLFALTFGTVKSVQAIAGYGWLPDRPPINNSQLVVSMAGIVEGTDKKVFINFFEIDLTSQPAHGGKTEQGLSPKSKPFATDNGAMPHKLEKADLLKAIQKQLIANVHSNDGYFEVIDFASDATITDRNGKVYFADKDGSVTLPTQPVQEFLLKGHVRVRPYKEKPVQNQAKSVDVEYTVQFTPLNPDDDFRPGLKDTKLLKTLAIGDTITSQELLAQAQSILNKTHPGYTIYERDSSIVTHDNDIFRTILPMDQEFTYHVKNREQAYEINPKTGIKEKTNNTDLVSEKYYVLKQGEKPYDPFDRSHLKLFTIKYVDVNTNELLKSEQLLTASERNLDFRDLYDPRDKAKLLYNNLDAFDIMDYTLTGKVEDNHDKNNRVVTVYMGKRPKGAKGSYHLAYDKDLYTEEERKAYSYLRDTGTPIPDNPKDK
Briefly: viability-normalized secreted streptokinase activity reduction – plasminogen activation absorbance, OD405, dose response (AID 1914).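 Further: secreted streptokinase activity via plasminogen activation per viability signal from cell pellet.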 In kind it is functional, Streptococcus pyogenes M1 GAS.

In the next test the test system is Streptococcus. Briefly: GAS UMAA2166 growth inhibition – luminescence, BacTiterGlo, counter-screen for streptokinase expression inhibitor project, dose response (AID 1915).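 Further: potency for reduction of bacterial viability or growth.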 Type of test: functional, organism-based.

Chain of Luciferin 4-monooxygenase (P08659 whole entry): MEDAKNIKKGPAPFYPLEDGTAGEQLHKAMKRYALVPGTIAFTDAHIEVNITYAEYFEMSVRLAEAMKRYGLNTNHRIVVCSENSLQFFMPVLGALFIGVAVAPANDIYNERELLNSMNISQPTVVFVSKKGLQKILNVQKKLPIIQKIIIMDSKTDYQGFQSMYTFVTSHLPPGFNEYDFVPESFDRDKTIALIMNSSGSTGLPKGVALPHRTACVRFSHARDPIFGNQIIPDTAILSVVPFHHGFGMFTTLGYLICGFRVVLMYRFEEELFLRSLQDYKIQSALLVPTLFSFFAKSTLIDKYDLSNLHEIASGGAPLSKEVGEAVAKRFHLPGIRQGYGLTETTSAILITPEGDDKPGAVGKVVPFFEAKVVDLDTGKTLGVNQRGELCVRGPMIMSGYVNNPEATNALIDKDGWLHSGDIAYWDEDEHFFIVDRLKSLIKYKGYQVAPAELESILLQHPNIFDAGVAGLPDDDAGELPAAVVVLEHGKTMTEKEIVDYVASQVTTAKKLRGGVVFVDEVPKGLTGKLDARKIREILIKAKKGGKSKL
Chain of Cytochrome P450 2D6 (P10635 whole entry): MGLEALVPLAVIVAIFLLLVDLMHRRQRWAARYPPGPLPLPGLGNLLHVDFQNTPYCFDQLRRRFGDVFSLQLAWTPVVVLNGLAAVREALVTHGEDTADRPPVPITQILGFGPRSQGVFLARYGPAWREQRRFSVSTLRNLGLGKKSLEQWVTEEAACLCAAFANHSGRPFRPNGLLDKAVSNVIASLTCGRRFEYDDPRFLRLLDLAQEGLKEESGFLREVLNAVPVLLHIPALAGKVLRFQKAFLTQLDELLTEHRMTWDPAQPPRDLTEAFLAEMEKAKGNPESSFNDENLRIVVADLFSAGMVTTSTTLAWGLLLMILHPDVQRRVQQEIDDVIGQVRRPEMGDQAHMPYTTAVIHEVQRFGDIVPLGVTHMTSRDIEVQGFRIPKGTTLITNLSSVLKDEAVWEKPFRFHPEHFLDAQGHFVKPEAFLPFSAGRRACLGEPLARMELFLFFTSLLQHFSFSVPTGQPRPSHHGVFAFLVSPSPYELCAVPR
Chain of Cytochrome P450 3A4 (P08684 whole entry): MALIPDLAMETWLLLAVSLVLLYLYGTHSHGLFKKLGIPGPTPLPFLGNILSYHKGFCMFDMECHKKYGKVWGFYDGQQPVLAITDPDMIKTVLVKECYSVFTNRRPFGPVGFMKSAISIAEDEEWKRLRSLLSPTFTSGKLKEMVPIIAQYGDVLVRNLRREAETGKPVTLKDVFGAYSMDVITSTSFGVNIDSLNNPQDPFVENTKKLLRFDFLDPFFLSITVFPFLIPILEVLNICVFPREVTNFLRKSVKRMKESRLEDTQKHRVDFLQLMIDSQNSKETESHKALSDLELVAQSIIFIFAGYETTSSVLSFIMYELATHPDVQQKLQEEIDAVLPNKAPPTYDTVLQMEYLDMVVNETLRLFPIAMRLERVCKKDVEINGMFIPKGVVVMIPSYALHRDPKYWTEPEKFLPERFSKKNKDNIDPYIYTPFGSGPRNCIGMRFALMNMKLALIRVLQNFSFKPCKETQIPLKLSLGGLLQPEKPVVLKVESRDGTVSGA

Turning to `COc1ccc(CN2CCNC(=O)C2CC(=O)N(C)Cc2ccncn2)c(OC)c1` (configuration not stated), in test [1], the AC50 (commonly the concentration giving half of the maximal activity seen) is 89.1 µM (active). Besides, the EC50 (as a rule, the concentration needed to bring the measured effect to its halfway point) on Protein RecA is 24.7 µM (active).

Take `O=C(Nc1nnc(-c2cccnc2)s1)c1cccs1`: the results for the EC50 in test [2] and in [3] were 22.6 µM (active) and > 112 µM (not active), respectively.

In the case of `COc1cc(C2C(C#N)=C(N)Oc3[nH]nc(C)c32)cc2c1OCO2` (configuration not stated), in test [1], the AC50 was 2.11 µM (active). In addition, the concentration giving a half-maximal response (EC50) on Protein RecA was 1.38 µM (active).

Turning to `COc1ccc(/C=C2/C(=O)N(c3ccccc3)N=C2C)c(OC)c1`, in test [1], the concentration at half-maximal activity (AC50) was 3.87 µM (active). Moreover, the EC50 at Protein RecA is 2.64 µM (active).

Turning to `O=C(NC12CC3CC(CC(C3)C1)C2)c1ccc(COc2ccc(Cl)cc2[N+](=O)[O-])o1`, the CC50 – broadly, the concentration that lowers cell viability or growth by half – in test [4] is 32.4 µM (active). Moreover, the figures for the AC50 on Cytochrome P450 2D6, on Cytochrome P450 1A2 and on Cytochrome P450 3A4 were 28.2 µM (inconclusive), 14.1 µM (inconclusive) and 15.8 µM (inconclusive), respectively.

Take `Cc1ccc(-n2nc3c(=O)n(CCCC(=O)NCc4ccccc4Cl)nc(C)c3c2C)cc1`: the CC50 in test [4] was > 50 µM (active).

On to `CCCCCN1N=C(C)CC1=O`, for which the AC50 in [1] is 6.18 µM (active). Moreover, the EC50 on Protein RecA was 2.79 µM (active).

As for `CN(CC(=O)Nc1ccc(Cl)c(C(F)(F)F)c1)C(=O)c1cc(-c2ccncc2)nc2ccccc12`, in [4], the CC50 is 20 µM (active).

For the molecule `O=C(Oc1ccc(-c2nnco2)cc1)c1ccco1`, the AC50 in test [1] is 17.6 µM (active). The half-maximal effective concentration (EC50) at Protein RecA is 15.3 µM (active).

As to `COc1ccc(-c2nc(-c3cc([N+](=O)[O-])ccc3C)c(-c3ccccc3)[nH]2)cc1O`, in test [4], the CC50 was 15.1 µM (active).

Consider `CCOC(=O)c1sc(Nc2ccc(Br)cc2)nc1C`, for which, in [4], the CC50 was 27.5 µM (active).

As to `COc1cc(/C=C(\C#N)C(=O)c2c[nH]c3ccccc23)cc(OC)c1O`, the AC50 in test [1] was 1.26 µM (active). Also, the EC50 at Protein RecA is 1.18 µM (active). Moreover, the half-inhibitory concentration (IC50) (in general, the concentration at which inhibition is half-maximal) in test [5] is 43.6 µM (active).

As for `Cc1ccc(-c2c3c(nc4sc(C(N)=O)c(N)c24)CCC3)cc1`, the EC50 in test [2] and in test [3] was > 112 µM (not active) in each case. Also, on Cytochrome P450 2D6, the AC50 was 22.4 µM (inconclusive).

Consider `CC(=O)NC(c1ccc(Cl)cc1)c1c(O)ccc2ccc(O)cc12` (configuration not stated), for which the AC50 in test [1] is > 120 µM (inactive). The EC50 on Protein RecA was 4.61 µM (active).

Take `Cc1cccc(C2c3[nH]c4ccccc4c3CCN2Cc2cccn2-c2ncccn2)c1` (configuration not stated): in [4], the half-maximal cytotoxic concentration (CC50) is 20.4 µM (active). Further, the EC50 in test [6] was 0.647 µM (active); in test [7], 20.7 µM (active).

As to `CCOC(=O)C1CCC2(CC1)C(C#N)=C(N)Oc1[nH]nc(C)c12` (configuration not stated), the AC50 in [1] was 53.1 µM (active). Also, the EC50 on Protein RecA is > 380 µM (inactive).

For `O=C(CN1C(=O)S/C(=C\C=C\c2ccccc2)C1=O)Nc1ccccc1C(=O)O`, the EC50 in [8] is 5.14 µM (active); at Streptokinase A, 4.37 µM (active); with Streptococcus, 14.9 µM (active); on Protein RecA it was 10.8 µM (active). The AC50 in [1] was 8.47 µM (active).

Regarding `COc1cc2c(C(=O)N3CCOCC3)c(CSc3ccccc3)n(C)c2cc1Br`, the half-maximal cytotoxic concentration (CC50) in [4] is 20.7 µM (active).

`Cc1noc(O)c1N=Nc1ccc2[nH]c(O)nc2c1`: the CC50 in test [4] is 22.4 µM (active).

Regarding `CCc1ccc(NS(=O)(=O)c2ccc3ncc(C(=O)N4CCc5ccccc54)c(O)c3c2)cc1`, in [4], the CC50 was > 50 µM (active).

Turning to `CO/C(O)=C1/C(C)=NC2=C(C(=O)CCC2)C1c1cn(Cc2ccc(Br)cc2)nc1-c1ccccc1` (configuration not stated), the CC50 in [4] is 17.4 µM (active).
